For this assay, the system named is L1210 leukemia ip in BDF1 mice, survival T/C. The assay is described as follows: NCI In Vivo Anticancer Drug Screen. Data for tumor model L1210 Leukemia (intraperitoneal) in B6D2F1 (BDF1) mice. The settings on record: endpoint: mean survival time, higher = longer survival. Summed up: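 Tumor cells were implanted, animals were treated, and survival was followed. The result divides the treated measurement by the vehicle-control measurement.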

[1] abbreviates: dose: 100.0 mg/kg/injection, schedule: Q01DX009 (ip), vehicle: saline with Tween-80.
Setting [2] is: dose: 100.0 mg/kg/injection, schedule: Q04DX003 (ip), vehicle: saline with Tween-80.
[3] abbreviates: dose: 200.0 mg/kg/injection, schedule: Q01DX009 (ip), vehicle: saline with Tween-80.
[4] abbreviates: dose: 200.0 mg/kg/injection, schedule: Q04DX003 (ip), vehicle: saline with Tween-80.
Setting [5] is: dose: 400.0 mg/kg/injection, schedule: Q01DX009 (ip), vehicle: saline with Tween-80.
Setting [6] is: dose: 400.0 mg/kg/injection, schedule: Q04DX003 (ip), vehicle: saline with Tween-80.
Setting [7] is: dose: 100.0 mg/kg/injection, schedule: Q01DX009 (ip), vehicle: Klucel (hydroxypropylcellulose) (HPC).
Where [8] appears, read: dose: 100.0 mg/kg/injection, schedule: Q04DX003 (ip), vehicle: Klucel (hydroxypropylcellulose) (HPC).
The mark [9] stands for this setting: dose: 200.0 mg/kg/injection, schedule: Q01DX009 (ip), vehicle: Klucel (hydroxypropylcellulose) (HPC).
The mark [10] stands for this setting: dose: 200.0 mg/kg/injection, schedule: Q04DX003 (ip), vehicle: Klucel (hydroxypropylcellulose) (HPC).
Setting [11] is: dose: 400.0 mg/kg/injection, schedule: Q01DX009 (ip), vehicle: Klucel (hydroxypropylcellulose) (HPC).
The mark [12] stands for this setting: dose: 400.0 mg/kg/injection, schedule: Q04DX003 (ip), vehicle: Klucel (hydroxypropylcellulose) (HPC).
Where [13] appears, read: dose: 100.0 mg/kg/injection, schedule: Q01DX001 (ip), vehicle: saline.
[14] abbreviates: dose: 200.0 mg/kg/injection, schedule: Q01DX001 (ip), vehicle: saline.
Setting [15] is: dose: 25.0 mg/kg/injection, schedule: Q01DX009 (ip), vehicle: Klucel (hydroxypropylcellulose) (HPC).
[16] abbreviates: dose: 50.0 mg/kg/injection, schedule: Q01DX009 (ip), vehicle: Klucel (hydroxypropylcellulose) (HPC).
The mark [17] stands for this setting: dose: 50.0 mg/kg/injection, schedule: Q04DX003 (ip), vehicle: saline with Tween-80.
Setting [18] is: dose: 400.0 mg/kg/injection, schedule: Q01DX001 (ip), vehicle: saline.

The record followed here is PubChem BioAssay AID248 (DTP/NCI, 2004).

Several values for one entry are separate records, joined by “and”; a condition that tells them apart may be missing. Identical values can stand only once. Toxic doses and inconclusive results are not listed.

As to `CC(C)N(C(=O)COc1ccc(Cl)cc1Cl)c1ccccc1`, the T/C under setting [1] was 102 % of control; the T/C under setting [2] was 96 % of control; the T/C under setting [3] was 106 % of control; the T/C under setting [4] is 96 % of control; the T/C under setting [5] was 124 % of control; the T/C under setting [6] was 91 % of control.

Turning to `Cc1ccc(NC(=O)COc2ccc(Cl)cc2)cc1Cl`, the T/C was 94 % of control under setting [7]; 93 % of control under setting [8]; 86 % of control under setting [9]; 90 % of control under setting [10]; 93 % of control under setting [11]; 101 % of control under setting [12].

In the case of `O=C(O)C(=O)c1ccc(O)cc1O`, the T/C is 111 % of control under setting [13] and 103 % of control under setting [14].

With `CC(C(=O)c1ccc(-c2ccccc2)cc1)C(Cl)c1ccccc1` (stereo not drawn), the T/C under setting [1] was 106 % of control, the T/C under setting [3] is 94 % of control and the T/C under setting [5] was 97 % of control.

Regarding `O=[N+]([O-])CC1(O)CCCCC1`, the T/C is 97 % of control under setting [15] and 98 % of control under setting [16].

On to `CCCCCCCCCCCCCCS`, for which the T/C was 116 % of control (dose: 200.0 mg/kg/injection, schedule: Q01DX Z (ip), vehicle: methylcellulose (MC)); 108 % of control (dose: 225.0 mg/kg/injection, schedule: Q01DX Z (ip), vehicle: methylcellulose (MC)); 104 % of control (dose: 450.0 mg/kg/injection, schedule: Q01DX Z (ip), vehicle: methylcellulose (MC)); 103 % of control (dose: 675.0 mg/kg/injection, schedule: Q01DX Z (ip), vehicle: methylcellulose (MC)).

Take `Oc1ccc2ccccc2c1N=Nc1ccc(Cl)cc1`: the T/C was 104 % of control (dose: 12.5 mg/kg/injection, schedule: Q01DX015 (ip), vehicle: saline); 106 % of control (dose: 25.0 mg/kg/injection, schedule: Q01DX015 (ip), vehicle: saline); 106 % of control (dose: 50.0 mg/kg/injection, schedule: Q01DX015 (ip), vehicle: saline); 87 % of control (dose: 100.0 mg/kg/injection, schedule: Q01DX009 (ip), vehicle: carboxymethylcellulose (CMC)); 98 % of control (dose: 100.0 mg/kg/injection, schedule: Q01DX015 (ip), vehicle: saline); 98 % of control (dose: 100.0 mg/kg/injection, schedule: Q04DX003 (ip), vehicle: acetone). The T/C runs as follows: (dose: 200.0 mg/kg/injection, schedule: Q01DX009 (ip), vehicle: carboxymethylcellulose (CMC)) 87 % of control; (dose: 200.0 mg/kg/injection, schedule: Q01DX015 (ip), vehicle: saline) 95 % of control; (dose: 200.0 mg/kg/injection, schedule: Q04DX003 (ip), vehicle: acetone) 94 % of control; (dose: 400.0 mg/kg/injection, schedule: Q01DX015 (ip), vehicle: saline) 90 % of control; (dose: 400.0 mg/kg/injection, schedule: Q04DX003 (ip), vehicle: acetone) 88 % of control; (dose: 800.0 mg/kg/injection, schedule: Q01DX015 (ip), vehicle: saline) 96 % of control. For the same molecule, where the note is “dose: 1600.0 mg/kg/injection, schedule: Q01DX015 (ip), vehicle: saline”, the T/C is 89 % of control.

Take `CC1CCCC(CN=Cc2ccccc2O)[N-]1.CC1CCCC(CN=Cc2ccccc2O)[N-]1.[Ni+2]` (stereo not drawn): the T/C under setting [2] was 98 % of control.

For the molecule `CCC(CO)NC(=O)Nc1cccc2ccccc12` (stereo not drawn), the T/C under setting [17] was 105 % of control; the T/C under setting [1] was 102 % of control; the T/C under setting [2] was 105 % of control; the T/C under setting [3] is 96 % of control; the T/C under setting [4] is 100 % of control; the T/C under setting [5] was 96 % of control. Under setting [6], the T/C was 94 % of control.

In the case of `Cc1ncc(CO)c2c1OC(C)(C)OC2`, the T/C reads like this: (dose: 50.0 mg/kg/injection, schedule: Q01DX001 (ip), vehicle: saline) 97 % of control; under setting [13], 100 % of control; under setting [14], 103 % of control; under setting [18], 100 % of control.

Consider `CN(C(=O)c1ccccc1C(=O)N(C)c1ccccc1)c1ccccc1`, for which the T/C runs as follows: under setting [13], 109 % of control; under setting [14], 109 % of control; under setting [18], 97 % of control.

Regarding `c1ccc(N2CCOCC2)cc1`, the T/C by setting is: (dose: 12.5 mg/kg/injection, schedule: Q01DX009 (ip), vehicle: saline with Tween-80) 93 % of control; (dose: 25.0 mg/kg/injection, schedule: Q01DX009 (ip), vehicle: saline with Tween-80) 100 % of control; (dose: 50.0 mg/kg/injection, schedule: Q01DX009 (ip), vehicle: saline with Tween-80) 89 % of control; under setting [7], 95 % of control; under setting [1], 92 % of control; under setting [9], 93 % of control. Also, the T/C is 92 % of control under setting [3] and 101 % of control under setting [11].

Regarding `CC(=O)OC1COC(n2cnc3c(=S)nc(N)[nH]c32)C(OC(C)=O)C1OC(C)=O` (stereo not drawn), the T/C is 100 % of control under setting [13], 97 % of control under setting [14] and 97 % of control under setting [18].

As to `CCCCOc1ccc(C=Nc2ccc(C)cc2)cc1`, the T/C was 110 % of control (dose: 12.5 mg/kg/injection, schedule: Q01DX009 (ip), vehicle: Klucel (hydroxypropylcellulose) (HPC)); 109 % of control under setting [15]; 103 % of control under setting [16]; 93 % of control under setting [7]; 97 % of control under setting [8]; 95 % of control under setting [10]. Also, the T/C runs as follows: under setting [11], 92 % of control; under setting [12], 107 % of control.

On to `O=C(OCC1OC(n2c(=O)[nH]cc(F)c2=O)C(OC(=O)c2ccccc2)C1OC(=O)c1ccccc1)c1ccccc1` (stereo not drawn), for which the T/C was 121 % of control (dose: 12.5 mg/kg/injection, schedule: Q01DX005 (ip), vehicle: saline); 108 % of control (dose: 20.0 mg/kg/injection, schedule: Q01DX005 (ip), vehicle: Klucel (hydroxypropylcellulose) (HPC)); 152 % of control (dose: 25.0 mg/kg/injection, schedule: Q01DX005 (ip), vehicle: saline); 196 % of control and 206 % of control (dose: 50.0 mg/kg/injection, schedule: Q01DX005 (ip), vehicle: saline); 209 % of control (dose: 80.0 mg/kg/injection, schedule: Q01DX005 (ip), vehicle: Klucel (hydroxypropylcellulose) (HPC)); 94 % of control (dose: 100.0 mg/kg/injection, schedule: Q01DX005 (ip), vehicle: saline). Where the note is “dose: 200.0 mg/kg/injection, schedule: Q01DX005 (ip), vehicle: saline”, the T/C is 93 % of control and 92 % of control.

As to `c1c(NC2=NCCO2)cc2c3c1CCCN3CCC2`, the T/C (dose: 50.0 mg/kg/injection, schedule: Q01DX009 (ip), vehicle: saline) was 95 % of control.

In the case of `O=C(O)C(O)C(O)C(O)C(O)C(O)CO.[Fe]` (stereo not drawn), the T/C (dose: 75.0 mg/kg/injection, schedule: Q01DX001 (ip), vehicle: saline) was 95 % of control.

With `CCN(/N=C/c1ccc([N+](=O)[O-])o1)C(N)=O`, the T/C reads like this: (dose: 25.0 mg/kg/injection, schedule: Q04DX002 (ip), vehicle: saline with Tween-80) 100 % of control; (dose: 50.0 mg/kg/injection, schedule: Q04DX002 (ip), vehicle: saline with Tween-80) 103 % of control.

Turning to `O=[N+]([O-])c1ccc(Cl)nc1`, the T/C is 103 % of control under setting [13]; 100 % of control (dose: 100.0 mg/kg/injection, schedule: Q01DX009 (ip), vehicle: saline sonified); 101 % of control under setting [14]; 104 % of control (dose: 200.0 mg/kg/injection, schedule: Q01DX009 (ip), vehicle: saline sonified); 103 % of control under setting [18].

Regarding `O=C(O)c1cc2c3c(c1)CCCN3CCC2`, the T/C was 100 % of control under setting [17], 100 % of control under setting [2], 102 % of control under setting [4] and 91 % of control under setting [6].

For the molecule `CCCCCCC/C=N\N=C(N)N`, the T/C was 97 % of control (dose: 15.0 mg/kg/injection, schedule: Q01DX Z (ip), vehicle: carboxymethylcellulose (CMC)); 97 % of control (dose: 30.0 mg/kg/injection, schedule: Q01DX Z (ip), vehicle: carboxymethylcellulose (CMC)); 101 % of control (dose: 60.0 mg/kg/injection, schedule: Q01DX Z (ip), vehicle: carboxymethylcellulose (CMC)).
